From patent US12366579B2, “Sulfur-heterocycle exchange chemistry and uses thereof” (University of Virginia Patent Foundation, priority 2019, dated 2025)
“Also recorded” adds a separate entry of the source.

Tests used:
purified DPP3 = target: T1, purified DPP3 (Homo sapiens, UniProt Q9NY33); assay: DPP3 biochemical substrate assay (Arg-Arg β-naphthylamide peptidase assay)
T1 sequence (Q9NY33 1-737): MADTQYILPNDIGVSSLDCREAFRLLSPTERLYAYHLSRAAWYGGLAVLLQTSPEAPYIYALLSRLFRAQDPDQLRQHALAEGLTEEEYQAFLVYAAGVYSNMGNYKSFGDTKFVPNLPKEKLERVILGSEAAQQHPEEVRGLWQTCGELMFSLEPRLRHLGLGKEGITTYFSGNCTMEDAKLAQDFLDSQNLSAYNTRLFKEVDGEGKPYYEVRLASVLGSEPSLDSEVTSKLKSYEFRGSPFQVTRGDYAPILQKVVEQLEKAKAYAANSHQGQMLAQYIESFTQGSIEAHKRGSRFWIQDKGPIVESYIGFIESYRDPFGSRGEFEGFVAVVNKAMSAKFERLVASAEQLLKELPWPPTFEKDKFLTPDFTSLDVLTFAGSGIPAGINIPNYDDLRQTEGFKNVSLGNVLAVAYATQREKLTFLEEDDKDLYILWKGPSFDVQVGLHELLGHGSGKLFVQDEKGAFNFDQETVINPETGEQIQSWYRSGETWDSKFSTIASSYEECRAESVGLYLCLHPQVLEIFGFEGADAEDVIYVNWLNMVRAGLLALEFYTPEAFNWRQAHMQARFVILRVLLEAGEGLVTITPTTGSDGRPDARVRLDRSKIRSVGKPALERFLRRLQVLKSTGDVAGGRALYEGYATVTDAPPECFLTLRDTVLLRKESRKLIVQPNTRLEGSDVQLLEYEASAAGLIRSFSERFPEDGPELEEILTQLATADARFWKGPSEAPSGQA
Procedure: DPP3 Biochemical Substrate Assay
Substrate assays were performed using purified DPP3 protein diluted to 5 ng/μL in assay buffer. DPP3 samples (10 μl) were diluted to 85 μl with assay buffer and transferred to a black 96-well plate. Samples were treated with a 50× stock of SuTEx-fragment at indication concentration for 30 min at 37° C. A stock solution of DPP3 substrate (Arg-Arg β-naphthylamide trihydrochloride, 0.5 mM: Sigma-Aldrich. St, Louis, Missouri, United States of America) was diluted to 100 μM in assay buffer. Substrate solution (5 μl) was added to each sample. Samples were mixed briefly by shaking and reaction monitored in kinetic mode by measuring fluorescence at 450 nm for 10 min on a BMG Labtech CLARIOstar plate reader (BMG Labtech, Cary, North Carolina, United States of America).

YWHAE (Y49) = target: T2, YWHAE (Y49) (Homo sapiens, UniProt P62258); assay: Competitive chemical proteomics of SuTEx fragments vs HHS-482, YWHAE site; type: binding; conditions: fragment 50 μM, 30 min, 37° C.
T2 construct: endogenous in cells; host or cells: DM93 melanoma cells, soluble proteome (lysate)
T2 sequence (P62258 whole entry, the tested form may be a part): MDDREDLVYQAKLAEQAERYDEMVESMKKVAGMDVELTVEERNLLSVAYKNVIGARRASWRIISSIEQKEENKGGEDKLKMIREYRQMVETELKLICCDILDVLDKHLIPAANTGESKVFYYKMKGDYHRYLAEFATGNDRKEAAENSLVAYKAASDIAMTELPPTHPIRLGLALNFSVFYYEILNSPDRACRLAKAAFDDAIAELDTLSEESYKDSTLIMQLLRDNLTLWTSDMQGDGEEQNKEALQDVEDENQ
Procedure: (§1) Heavy and light proteomes (432 μl of each) were diluted to 2.3 mg ml^−1 in PBS and sample aliquots (432 μl) were treated with SuTEx fragment at the indicated concentrations (5 μl, 100× stock in DMSO), mixed gently and incubated for 30 min at 37° C. Samples were then treated with HHS-482 (5 μL, 5 mM stock in DMSO) for 30 min at 37° C. Probe-modified proteomes were conjugated to desthiobiotin-PEG3-azide followed by enrichment of probe-modified peptides for nano-electrospray ionization-LC-MS/MS analyses as previously described^57.
(§2) The chemical proteomic method for functional tyrosine profiling^72 was tailored to investigate AG/LG effects on SuTEx fragment reactivity in complex proteomes. In brief, isotopically light and heavy soluble proteomes from DM93 melanoma cells cultured by stable isotopic labeling by amino acids in cell culture (SILAC^80) media were used for quantitative liquid chromatography-mass spectrometry (LC-MS) studies. […] Proteomes were digested with trypsin protease, HHS-482-modified peptides enriched by avidin chromatography and analyzed by high-resolution LC-MS/MS and bioinformatics as described hereinabove.
(§3) To evaluate substituent effects on proteome activity, reactivity profiles of each respective SuTEx fragment were compared across >1500 total distinct HHS-482-modified tyrosine sites from >650 detected proteins. […]

DPP3 Y417 = target: T3, DPP3 Y417 (Homo sapiens, UniProt Q9NY33); assay: Quantitative LC-MS chemical proteomics of recombinant human DPP3-HEK293T soluble proteome; type: binding; conditions: 50 μM fragment, 37° C., 30 min
T3 construct: FLAG (C); host or cells: HEK293T, transient transfection; soluble proteome used unpurified
Procedure: Preparation of SILAC Proteomes for Liquid Chromatography-Tandem Mass Spectrometry ([…]) Analysis
as §1
Identification of peptides and proteins from tandem mass spectrometry analyses was accomplished using bioinformatics software and quality control criteria as previously described^57.

DM93 soluble proteomes = assay: Proteome-wide competitive chemical proteomics of SuTEx fragments vs HHS-482; type: binding, human; conditions: fragment 50 μM, 30 min, 37° C.
Procedure: as §1
The chemical proteomic method for functional tyrosine profiling^72 was tailored to investigate AG/LG effects on SuTEx fragment reactivity in complex proteomes. In brief, isotopically light and heavy soluble proteomes from DM93 melanoma cells cultured by stable isotopic labeling by amino acids in cell culture (SILAC^80) media were used for quantitative liquid chromatography-mass spectrometry (LC-MS) studies. Light and heavy DM93 proteomes were treated with dimethyl sulfoxide (DMSO) vehicle or SuTEx fragment (50 μM, 30 min, 37° C.), respectively, followed by labeling with the tyrosine-reactive probe HHS-482 described hereinabove (50 μM, 30 min, 37° C.) and copper-catalyzed azide-alkyne cycloaddition (CuAAC) conjugation of a desthiobiotin-azide enrichment tag. Proteomes were digested with trypsin protease, HHS-482-modified peptides enriched by avidin chromatography and analyzed by high-resolution LC-MS/MS and bioinformatics as described hereinabove.
To evaluate substituent effects on proteome activity, reactivity profiles of each respective SuTEx fragment were compared across >1500 total distinct HHS-482-modified tyrosine sites from >650 detected proteins. Fragments were screened across independent biological replicates (n=2-3) and high-quality tyrosine site annotations were identified by detection in at least a single biological replicate from each fragment dataset, probe-specific enrichment (HHS-482 probe/DMSO SILAC ratio (SR)>5), and quality control confidence criteria of ≥300 Byonic score^31, […] protein false discovery rate (FDR), and ≤5 ppm mass accuracy in order to minimize the potential for false positives^72. SILAC ratios (SR) from competitive studies (Light-DMSO/Heavy-fragment) were used to identify fragment-competed tyrosine residues as sites showing >75% reduction in enrichment by HHS-482 compared with DMSO vehicle control (i.e. liganded tyrosines, SR>4). In total, 305 liganded tyrosines on 213 distinct proteins were identified, corresponding to ˜30% and ˜44% of total quantified tyrosines and proteins, respectively. […]

human DPP3 (hDPP3) = target: T4, human DPP3 (hDPP3) (Homo sapiens, UniProt Q9NY33); assay: Gel-based competitive chemical proteomic screen with HHS-482, recombinant hDPP3-HEK293T soluble proteomes; type: binding; conditions: 50 μM fragment, 37° C., 30 min
T4 construct: FLAG (C); host or cells: HEK293T, transient transfection; soluble proteome used unpurified
T4 sequence (Q9NY33 1-737): T1 sequence (Q9NY33 1-737)
Procedure: Gel-Based Chemical Proteomic Assay
Cell pellets were lysed in PBS and fractionated (100,000×g, 45 min, 4° C.) to generate soluble and membrane fractions. Protein concentrations were determined using Bio-Rad DC protein assay (Bio-Rad Laboratories, Inc., Hercules, California, United States of America), and adjusted to 1 mgml^−1 in PBS. Proteome samples (49 μl aliquots) were treated with DMSO vehicle or indicated concentration of SuTEx fragment (1 μL, 50× stock in DMSO) for 30 min at 37° C. Samples were then treated with HHS-482 probe (1 μL, 2.5 mM stock in DMSO) for 30 min at 37° C. Probe labeled samples were conjugated to rhodamine-azide (1 μL, 1.25 mM stock; final concentration of 25 μM) by copper-catalyzed azide-alkyne cycloadditions (CuAAC) for 1 h at room temperature followed by SDS-PAGE and in-gel fluorescence scanning as previously described^57.

PLD3 (Y437) = target: T5, PLD3 (Y437) (Homo sapiens, UniProt Q8IV08); assay: Competitive chemical proteomics of SuTEx fragments vs HHS-482, PLD3 site; type: binding; conditions: fragment 50 μM, 30 min, 37° C.
T5 construct: endogenous in cells; host or cells: DM93 melanoma cells, soluble proteome (lysate)
T5 sequence (Q8IV08 whole entry, the tested form may be a part): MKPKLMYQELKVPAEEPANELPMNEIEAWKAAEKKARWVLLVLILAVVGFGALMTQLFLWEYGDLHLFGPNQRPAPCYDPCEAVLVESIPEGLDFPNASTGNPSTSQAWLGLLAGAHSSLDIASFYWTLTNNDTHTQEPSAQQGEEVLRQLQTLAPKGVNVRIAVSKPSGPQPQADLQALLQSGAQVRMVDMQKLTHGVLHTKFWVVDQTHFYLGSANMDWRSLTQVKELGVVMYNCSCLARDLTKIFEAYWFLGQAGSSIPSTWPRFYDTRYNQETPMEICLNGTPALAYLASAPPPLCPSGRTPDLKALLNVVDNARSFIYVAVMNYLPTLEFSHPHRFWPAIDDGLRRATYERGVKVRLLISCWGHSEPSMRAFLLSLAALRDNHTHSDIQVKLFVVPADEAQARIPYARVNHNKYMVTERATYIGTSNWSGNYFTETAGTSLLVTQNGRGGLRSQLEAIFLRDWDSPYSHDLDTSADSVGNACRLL
Procedure: as §1, §2, §3

[1] = HPLC assay for solution reactivity of sulfonyl triazole fragments with p-cresol; type: physicochemical; conditions: HPLC assay, TMG base
Procedure: HPLC Assay for Profiling Solution Reactivity and Stability of Sulfonyl Triazole Fragments
The following reagents were prepared and stored on ice prior to use. 0.1 M solution of caffeine in acetonitrile, 1.0 M solution of n-butylamine, p-cresol, tetramethylguanidine […], 1 M HOAc in ACN and 10 mM solution of SuTEx fragment in DMF-ACN mixture (10:90, v/v). 500 μL of fragment solution was transferred to a dram vial on ice. To the mixture, 5.5 μL of TMG and 5.5 μL of p-cresol or n-butylamine was added and solutions were stirred on ice for 6 h. To monitor reactivity, 50 μL aliquots were removed at indicated time points and quenched with 10 μL of a 1:1 mixture of caffeine and HOAc. Samples were injected (1 μL) and analyzed by reverse-phase HPLC on a Shimadzu 1100 Series spectrometer (Shimadzu, Kyoto, Japan) with UV detection at 254 nm. Reaction progress was evaluated by monitoring consumption of starting material (SuTEx fragment) normalized to caffeine standard. Chromatographic separation was performed using a Phenomenex Kinetex C18 column (2.6 μm, 50×4.6 mm) (Phenomenex, Torrance, California, United States of America). Mobile phases A and B were composed of H2O+0.1% HOAc and ACN+0.1% HOAc, respectively. Samples were analyzed using the following analytical conditions: using a flow rate of 0.8 ml min^−1, the gradient was as follows: 0-0.5 min, 15% B; 0.5-6.5 min 85% B; 6.5-7 min 100% B: 7-8.5 min 100% B; 8.5-9 min 15% B; 9-9.8 min 15% B.

[2] = target: T6, recombinant GSTP1 lysates (Homo sapiens, UniProt P09211); assay: GSTP1 biochemical substrate assay (GSH conjugation to BDNB); conditions: negative control probes; highest concentration tested 100 μM
T6 construct: FLAG (C); host or cells: HEK293T, transient transfection; soluble proteome used unpurified
T6 sequence (P09211 whole entry): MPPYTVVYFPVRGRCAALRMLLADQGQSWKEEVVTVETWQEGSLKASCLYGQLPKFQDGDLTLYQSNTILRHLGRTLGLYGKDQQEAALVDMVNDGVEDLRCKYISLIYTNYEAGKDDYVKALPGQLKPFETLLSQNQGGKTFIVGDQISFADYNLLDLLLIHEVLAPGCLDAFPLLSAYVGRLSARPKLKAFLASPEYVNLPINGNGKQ
Procedure: GSTP1 Biochemical Substrate Assay
Recombinant GSTP1-HEK293T soluble cell proteomes were diluted to 1 mg ml^−1 in assay buffer (100 mM NaH2PO4, pH 7.0). Samples were treated with inhibitor at indicated concentrations for 30 min at 37° C. GSH stock solution (250 mM in water) was diluted to 4 mM in assay buffer and 25 μl of diluted GSH solution was added to each sample. A substrate stock solution of 75 mM 1-bromo-2,4-dinitrobenzene […] in ethanol was diluted to 2 mM in assay buffer. Samples (25 μl) were aliquoted into a 96-well plate and spun briefly via centrifuge. Next, 50 μl of 2 mM BDNB was added to each well and the reaction was monitored in kinetic mode by measuring absorbance at 340 nm for 10 min on a BMG Labtech CLARIOstar plate reader (BMG Labtech, Cary, North Carolina, United States of America).

Row | Structure (SMILES) | fold difference in potency against DPP3, JWB142 vs SuFEx-3 (purified DPP3; JWB142 more potent than SuFEx counterpart) | IC50 (purified DPP3; fragment pretreatment 30 min at 37° C., n=3, read-out: IC50, blockade of DPP3 catalytic (peptidase) activity) | SILAC ratio (SR) at tyrosine competed site YWHAE Y49 (YWHAE (Y49)) | SILAC ratio (SR), DPP3 Y417 (DPP3 Y417) | blockade of HHS-482 labeling of DPP3 Y417 (site liganded) (DPP3 Y417) | liganded tyrosine frequency (SR>4) (DM93 soluble proteomes) | blockade of DPP3 probe (HHS-482) labeling (human DPP3 (hDPP3)) | SILAC ratio (SR) at tyrosine competed site PLD3 Y437 (PLD3 (Y437)) | solution reactivity with p-cresol [1] | inhibitory activity against GSTP1 [2]
1 | COc1ccc(-c2ncn(S(=O)(=O)c3ccc(-c4ccccc4)cc3)n2)cc1 [JWB142, 1-([1,1′-Biphenyl]-4-ylsulfonyl)-3-(4-methoxyphenyl)-1H-1,2,4-triazole] | > 10 fold | 17 µM | > 6 | 2.4 | ~50% | < 0.1% | ~50% | – | – | –
2 | O=S(=O)(C1CC1)n1cnc(-c2ccc(C(F)(F)F)cc2)n1 [JWB146, 1-(Cyclopropylsulfonyl)-3-(4-(trifluoromethyl)phenyl)-1H-1,2,4-triazole] | – | – | – | – | – | – | – | > 6 | largely unreactive | lack of activity; also recorded: did not show inhibitory activity
